These results are taken from patent US11944623B2, “Modulators of Kv3 channels to treat pain” (Autifony Therapeutics Limited, priority 2015, dated 2024).

For the assay, the target named is T1, human Kv3.3 channels (Homo sapiens, UniProt Q14003).
T1 construct: expressed in transfected cells
T1 sequence (Q14003 1-757): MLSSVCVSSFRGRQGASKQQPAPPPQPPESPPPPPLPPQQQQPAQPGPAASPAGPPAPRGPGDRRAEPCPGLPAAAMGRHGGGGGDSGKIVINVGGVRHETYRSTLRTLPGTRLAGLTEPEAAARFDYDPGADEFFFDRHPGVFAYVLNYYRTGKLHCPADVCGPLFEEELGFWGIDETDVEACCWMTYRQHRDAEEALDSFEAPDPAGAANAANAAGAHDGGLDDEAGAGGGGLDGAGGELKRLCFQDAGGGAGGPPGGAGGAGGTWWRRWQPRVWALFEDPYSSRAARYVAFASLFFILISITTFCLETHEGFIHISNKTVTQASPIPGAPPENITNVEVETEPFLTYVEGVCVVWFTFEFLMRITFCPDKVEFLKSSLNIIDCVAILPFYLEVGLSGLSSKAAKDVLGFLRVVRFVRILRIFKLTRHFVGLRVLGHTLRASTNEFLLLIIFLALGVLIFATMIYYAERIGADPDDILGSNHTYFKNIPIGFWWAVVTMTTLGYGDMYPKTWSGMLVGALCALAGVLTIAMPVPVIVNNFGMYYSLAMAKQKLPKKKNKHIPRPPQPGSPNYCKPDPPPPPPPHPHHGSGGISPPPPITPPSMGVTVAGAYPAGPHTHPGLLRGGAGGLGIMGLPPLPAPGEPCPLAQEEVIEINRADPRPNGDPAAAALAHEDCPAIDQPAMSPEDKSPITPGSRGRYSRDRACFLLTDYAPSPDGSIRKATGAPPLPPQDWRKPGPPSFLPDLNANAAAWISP
Put plainly: hKv3.3 IonWorks Quattro whole-cell current potentiation assay. In kind it is cell-based. The settings on record: for mean increase in human Kv3.3 peak current at 0 mV: 12.5 micromolar; for EC50: read-out: pEC50 for Kv3.3 (converted). From the text: The ability of the compounds of the invention to modulate the voltage-gated potassium channel subtypes Kv3.3/Kv3.2/Kv3.1 may be determined using the following assay. Analogous methods may be used to investigate the ability of the compounds of the invention to modulate other channel subtypes.
To assess compound effects on human Kv3.3 channels (hKv3.3), a stable cell line expressing human Kv3.3 channels was created by transfecting Chinese Hamster Ovary (CHO)-K1 cells with a pBacMire_KCNC-3 vector. Cells were cultured in DMEM/F12 (Gibco) supplemented with 10% Foetal Bovine Serum (Gibco), 1× non-essential amino acids (Invitrogen) and geneticin (G418) 400 microg/mL. Cells were grown and maintained at 37° C. in a humidified environment containing 5% CO2 in air.
The day of the experiment, cells were removed from the incubator and the culture medium removed. Cells were washed with 5 ml of Dulbecco's PBS (DPBS) calcium and magnesium free and detached by the addition of 3 ml Versene (Invitrogen, Italy) followed by a brief incubation at 37° C. for 5 minutes. The flask was tapped to dislodge cells and 10 ml of DPBS containing calcium and magnesium was added to prepare a cell suspension. The cell suspension was then placed into a 15 ml centrifuge tube and centrifuged for 2 min at 1200 rpm. After centrifugation, the supernatant was removed and the cell pellet re-suspended in 4 ml of DPBS containing calcium and magnesium using a 5 ml pipette to break up the pellet. Cell suspension volume was then corrected to give a cell concentration for the assay of approximately 3 million cells per ml.
Experiments were conducted at room temperature using IonWorks Quattro™ planar array electrophysiology technology (Molecular Devices Corp.) with PatchPlate™ PPC. Stimulation protocols and data acquisition were carried out using a microcomputer (Dell Pentium 4). Planar electrode hole resistances (Rp) were determined by applying a 10 mV voltage step across each well. These measurements were performed before cell addition. After cell addition and seal formation, a seal test was performed by applying a voltage step from −80 mV to −70 mV for 160 ms. Following this, amphotericin-B solution was added to the intracellular face of the electrode to achieve intracellular access. Cells were held at −70 mV. Leak subtraction was conducted in all experiments by applying 50 ms hyperpolarizing (10 mV) prepulses to evoke leak currents followed by a 20 ms period at the holding potential before test pulses. For hKv3.2 and hKv3.1 assays, from the holding potential of −70 mV, a first test pulse to −15 mV was applied for 100 ms and following a further 100 ms at −70 mV, a second pulse to 40 mV was applied for 50 ms. Cells were then maintained for a further 100 ms at −100 mV and then a voltage ramp from −100 mV to 40 mV was applied over 200 ms. For hKv3.3 assays, from the holding potential of −70 mV, a first test pulse to 0 mV was applied for 500 ms and following a further 100 ms at −70 mV, a second pulse to 40 mV was applied for 200 ms. These longer test pulses were used to study inactivation of hKv3.3 channels.
Test pulses protocol may be performed in the absence (pre-read) and presence (post-read) of the test compound. Pre- and post-reads may be separated by the compound addition followed by a 3-minute incubation.
The intracellular solution contained the following (in mM): K-gluconate 100, KCl 54, MgCl2 3.2, HEPES 5, adjusted to pH 7.3 with KOH. Amphotericin-B solution was prepared as 50 mg/ml stock solution in DMSO and diluted to a final working concentration of 0.1 mg/ml in intracellular solution. The external solution was Dulbecco's Phosphate Buffered Saline (DPBS) and contained the following (in mM): CaCl2 0.90, KCl 2.67, KH2PO4 1.47, MgCl·6H2O 0.493, NaCl 136.9, […] 8.06, with a pH of 7.4. […]

With `Cc1ccc(Oc2ncc(N3C(=O)NC(C)(C)C3=O)cn2)c2c1OCC21CC1` [Compound 1, 5,5-dimethyl-3-[2-(7-methylspiro[2H-benzofuran-3,1′-cyclopropane]-4-yl)oxypyrimidin-5-yl]imidazolidine-2,4-dione], the “mean increase in human Kv3.3 peak current at 0 mV” value (“mean increase” below) is reported as 192% and the EC50 was 6.76 µM.

Consider `CC[C@@]1(C)NC(=O)N(c2cnc(Oc3ccc(C)c(OC(F)(F)F)c3)nc2)C1=O` [Compound 2, (5R)-5-ethyl-5-methyl-3-[2-({4-methyl-3-[(trifluoromethyl)oxy]phenyl}oxy)-5-pyrimidinyl]-2,4-imidazolidinedione], for which the “mean increase” value stood at 113% and the EC50 is 11.7 µM.

Turning to `Cc1ccc(Oc2ccc(-n3c(C)n[nH]c3=O)cn2)c2c1OCC21CC1` [Compound 3, 5-methyl-4-{6-[(7-methylspiro[1-benzofuran-3,1′-cyclopropan]-4-yl)oxy]pyridin-3-yl}-2,4-dihydro-3H-1,2,4-triazol-3-one], the EC50 is 17.4 µM.

In the case of `CC[C@H]1NC(=O)N(c2ccc(Oc3ccc(C)c4c3C3(CC3)CO4)nc2)C1=O` [Compound 4, (5R)-5-ethyl-3-[6-(7-methylspiro[2H-benzofuran-3,1′-cyclopropane]-4-yl)oxy-3-pyridyl]imidazolidine-2,4-dione], the “mean increase” value worked out at 365%.
